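Method: 48-hour compound exposure of cells in 96-well plates, five concentrations, linear interpolation of endpoints. TGI is the concentration that stops growth completely.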
Legend:
Assay in all cases: DTP human tumour cell line panel, 48 h
A498 renal = system: A498 renal
A549 NSCLC = system: A549 NSCLC
COLO 205 colon = system: COLO 205 colon
EKVX NSCLC = system: EKVX NSCLC
IGROV1 ovarian = system: IGROV1 ovarian
MCF7 breast = system: MCF7 breast
MDA-MB-435 = system: MDA-MB-435
MDA-N = system: MDA-N
MOLT-4 leukemia = system: MOLT-4 leukemia
NCI-H522 lung = system: NCI-H522 lung
OVCAR-3 ovarian = system: OVCAR-3 ovarian
RXF 393 renal = system: RXF 393 renal
SF-539 CNS = system: SF-539 CNS
SK-MEL-28 melanoma = system: SK-MEL-28 melanoma
SK-OV-3 ovarian = system: SK-OV-3 ovarian
SNB-19 CNS = system: SNB-19 CNS
SNB-75 CNS = system: SNB-75 CNS
SR leukemia = system: SR leukemia
UACC-62 melanoma = system: UACC-62 melanoma

Row | SMILES | TGI (A498 renal) [µM] | TGI (A549 NSCLC) [µM] | TGI (COLO 205 colon) [µM] | TGI (EKVX NSCLC) [µM] | TGI (IGROV1 ovarian) [µM] | TGI (MCF7 breast) [µM] | TGI (MDA-MB-435) [µM] | TGI (MDA-N) [µM] | TGI (MOLT-4 leukemia) [µM] | TGI (NCI-H522 lung) [µM] | TGI (OVCAR-3 ovarian) [µM] | TGI (RXF 393 renal) [µM] | TGI (SF-539 CNS) [µM] | TGI (SK-MEL-28 melanoma) [µM] | TGI (SK-OV-3 ovarian) [µM] | TGI (SNB-19 CNS) [µM] | TGI (SNB-75 CNS) [µM] | TGI (SR leukemia) [µM] | TGI (UACC-62 melanoma) [µM]
1 | CCOC(=O)CC[C@H](NC(=O)c1ccc(CNc2nc3cc(C(F)(F)F)ccc3nc2C(=O)OCC)cc1)C(=O)OCC | > 100 | > 100 | > 100 | 42.7 | > 53.4 | > 51.9 | > 100 | > 100 | > 100 | 29.1 | > 53.2 | > 100 | 17.3 | > 100 | > 100 | 25.4 | 41.3 | > 100 | 43
2 | CCOC(=O)c1ccc(OCc2nc3cc(C(F)(F)F)ccc3nc2-c2ccccc2)cc1 | > 100 | > 100 | > 100 | > 100 | > 100 | > 100 | > 100 | > 100 | > 100 | > 100 | > 100 | > 100 | > 100 | > 100 | – | > 100 | > 100 | > 100 | > 100
3 | CC[C@]1(Cc2ccc(OC)c(OC)c2)C=[N+]([O-])O[C@H](OC2CCCCC2c2ccccc2)[C@@H]1OC(C)=O (stereo partly specified) | > 100 | > 100 | 40.5 | > 100 | > 100 | > 100 | > 100 | > 100 | 63 | > 100 | > 100 | 94.1 | – | > 100 | > 100 | > 100 | > 100 | 91.1 | > 100
4 | O=C1OCCC12CN(Cc1ccccc1)N=N2 (stereo unspecified) | > 100 | > 100 | > 100 | – | – | > 100 | > 100 | > 100 | > 100 | > 100 | > 100 | > 100 | > 100 | > 100 | > 100 | > 100 | – | 74.6 | > 100
5 | CC(=O)OC(=C(C#N)C#N)c1nccnc1C(=O)O | > 100 | > 100 | > 100 | > 100 | > 100 | > 100 | > 100 | > 100 | > 100 | > 100 | > 100 | > 100 | > 100 | > 100 | > 100 | > 100 | > 100 | > 100 | > 100
6 | O=C1CC(C(O)C(O)C(O)CO)CC(=O)N1 (stereo unspecified) | > 100 | > 100 | > 100 | > 100 | > 100 | > 100 | > 100 | > 100 | > 100 | > 100 | > 100 | > 100 | > 100 | > 100 | – | > 100 | > 100 | > 100 | –
7 | Nc1c(C(=O)c2ccc(Cl)cc2)[nH]c(Nc2ccc(Cl)cc2)c1C(=S)Nc1ccccc1 | 28.9 | 13.9 | 16.5 | 19.5 | 17.3 | 21.6 | 20 | 21.5 | 42.6 | 20.3 | 12.9 | 7.45 | 18.4 | 14.4 | 19.3 | 21.8 | 6.6 | 7.41 | 27.1
8 | OC1C2CCC3C2CC(C(O)(c2ccccc2)c2ccccc2)C13 (stereo unspecified) | > 100 | > 100 | 37.2 | > 100 | > 100 | > 100 | > 100 | > 100 | 74 | > 100 | 87.3 | 96.6 | > 100 | > 100 | > 100 | > 100 | 43.9 | 69.7 | > 100
9 | Cc1c2ccccc2c(CSC(=N)N)c2ccccc12 | 0.4 | 1.62 | 0.37 | 1.33 | 2.36 | 0.518 | 0.44 | 0.457 | 0.127 | 0.196 | 2.73 | 0.161 | 0.419 | 0.809 | 2.67 | 1.39 | 0.445 | 0.0673 | 0.408
10 | CC(=O)NC1C(O)C(O)C(CO)OC1n1nc(SCc2ccccc2)c(=O)[nH]c1=O (stereo unspecified) | > 100 | > 100 | > 100 | > 100 | > 100 | > 100 | > 100 | > 100 | > 100 | > 100 | > 100 | > 100 | > 100 | > 100 | > 100 | > 100 | > 100 | > 100 | > 100
11 | NNC(=O)CC(=O)Nc1ccccc1Cl | > 100 | > 100 | > 100 | > 100 | > 100 | > 100 | > 100 | > 100 | > 100 | > 100 | > 100 | > 100 | > 100 | > 100 | > 100 | > 100 | > 100 | > 100 | > 100
12 | CC(=O)N(C(=O)CC(=O)NNCc1ccccc1Cl)c1ccc(Cl)cc1 | > 10 | > 10 | > 10 | > 10 | > 10 | > 10 | > 10 | > 10 | > 10 | > 10 | > 10 | > 10 | > 10 | > 10 | > 10 | > 10 | > 10 | > 10 | > 10
13 | O=P1(N(CCCl)CCCl)Oc2c(Cl)cc(Cl)c(Cl)c2Cc2c(Cl)c(Cl)cc(Cl)c2O1 | > 100 | > 100 | 45.7 | > 100 | – | > 100 | > 100 | > 100 | > 100 | > 100 | > 100 | > 100 | > 100 | > 100 | > 100 | – | > 100 | > 100 | > 100
14 | CCCCCCCCCCCCCCCCCCNc1ccn(C2OC(COP(=O)(O)OCC(COP(=O)(O)OCC3OC(n4cc(C)c(=O)[nH]c4=O)CC3N=[N+]=[N-])OCCCCCCCCCCCCCCCCCC)C(O)C2O)c(=O)n1 (stereo unspecified) | > 100 | > 100 | > 100 | > 100 | > 100 | > 100 | > 100 | > 100 | > 100 | 96.5 | > 100 | > 100 | 88.7 | > 100 | > 100 | 50.5 | > 100 | > 100 | > 100
15 | COCn1c(=O)n(C)c(=O)c2c1nc1c(c(=O)n(C)c(=O)n1COC)[n+]2[O-] | 82.8 | 91.2 | 31.8 | 44.1 | 48.9 | > 100 | 40.2 | 76.9 | 29.5 | 44 | 44.1 | 10.9 | 39.2 | > 100 | 36.1 | > 100 | 22.3 | 21.3 | 33.7
16 | COc1cc(/C=C2/CCCc3ccccc3C2=O)cc(OC)c1OC | > 75 | > 100 | > 60.8 | > 92.2 | > 100 | > 63.9 | > 70.6 | > 43.8 | > 35 | 41 | > 55.6 | > 100 | > 64.7 | > 100 | > 68.1 | > 100 | > 49.9 | > 39.2 | > 67.4
17 | C=C1CC(COc2ccc3c(C)c(Cl)c(=O)oc3c2)(c2ccccc2)OC1=O (stereo unspecified) | 25.7 | 27.9 | 1.83 | 31.2 | 3.89 | 5.14 | 7.6 | 5.48 | – | 3.93 | 6.71 | – | 7.34 | 6.43 | 16.2 | 29.7 | 11.7 | > 21.5 | 3.53
18 | O=[N+]([O-])c1ccc(CSc2c3ccccc3nc3ccccc23)cc1 | 58.8 | 51.4 | 16.9 | 34.7 | 7.66 | > 100 | 14.3 | 23.1 | > 21.2 | 3.62 | 14.4 | 18.5 | 9.43 | 13.5 | 41.4 | 37.4 | 33.1 | > 27.1 | 29.3
19 | CC1(C)CC(=O)c2c([nH]c(=S)c(C#N)c2-c2ccc(Br)cc2)C1 | > 100 | > 100 | – | > 100 | > 100 | > 100 | > 100 | > 100 | – | > 100 | > 100 | > 100 | > 100 | > 100 | > 100 | > 100 | > 100 | 51.7 | > 100
20 | Cc1cc2nn(C3CCCCO3)nc2cc1C (stereo unspecified) | > 100 | > 100 | > 100 | > 100 | > 100 | > 100 | > 100 | > 100 | > 100 | > 100 | > 100 | > 100 | > 100 | – | > 100 | > 100 | > 100 | > 100 | > 100
21 | Cc1cccc(-c2cccc(COCc3cccc(-c4cccc(CO)n4)n3)n2)n1 | > 50 | > 50 | > 50 | > 50 | > 50 | > 50 | > 50 | > 50 | > 50 | > 50 | > 50 | – | > 50 | > 50 | > 50 | > 50 | > 50 | > 50 | > 50
22 | CCCCCCCCCCCCCCCCOP(=O)(O)OP(=O)(O)OCC1OC(n2cnc3c(N)ncnc32)C(O)C1O (stereo unspecified) | > 100 | > 100 | > 100 | > 100 | > 100 | > 100 | > 100 | > 100 | > 100 | 92.8 | > 100 | > 100 | – | 64 | > 100 | > 100 | 61.8 | 78.3 | > 100
23 | S=C(Nc1ccc(Cl)cc1)c1ccc(CN2CCCCC2)s1 | 29 | > 100 | 14.2 | 35.1 | 8.82 | 61.9 | 67.6 | 16.8 | 30.5 | 75 | > 100 | – | > 100 | 37.2 | – | – | – | 19.5 | 21.7
24 | CSc1ccc(/C=C/C(=O)c2nc3ccccc3[nH]2)cc1 | 41.2 | 98.6 | 96 | 54.4 | > 100 | 8.97 | 35.8 | > 100 | 18.6 | 33.5 | 40.5 | – | > 100 | > 100 | > 100 | 49.4 | 43.8 | 6.56 | 36.2
25 | CCCCCCCCCCCCCCCCC(=O)NCC(=O)NCC(=O)NC(Cc1ccccc1)C(=O)Oc1ccc([N+](=O)[O-])cc1 (stereo unspecified) | > 100 | – | 35.8 | > 100 | > 100 | > 100 | > 100 | > 100 | 38.7 | 55.2 | > 100 | 46.6 | 46.8 | 30.3 | – | – | > 100 | 51.3 | 40.5
